# Results published in US6214844A, “Substituted imidazole compounds” (SmithKline Beecham Corporation, priority 1999, dated 2001).
# Columns and labels:
# human PGHS-2 = test: Prostoglandin endoperoxide synthase-2 (PGHS-2) assay: PGHS-2 protein expression in LPS stimulated human monocytes; format: cell-based
# Description: Prostoglandin endoperoxide synthase-2 (PGHS-2) assay:
# The following assay describes a method for determining the inhibitory effects of compounds of Formula (I) on human PGHS-2 protein expression in LPS stimulated human monocytes.
# Method: Human peripheal blood monocytes were isolated from buffy coats by centrifugation through Ficoll and Percoll gradients. Cells were seeded at 2×10^6 /well in 24 well plates and allowed to adhere for 1 hour in RPMI supplemented with 1% human AB serum, 20 mM L-glutamine, Penicillin-Streptomycin and 10 mM HEPES. Compounds were added at various concentrations and incubated at 37° C. for 10 minutes. LPS was added at 50 ng/well (to induce enzyme expression) and incubated overnight at 37° C. The supernatant was removed and cells washed once in cold PBS. The cells were lysed in 100 μl of cold lysis buffer(50 mM Tris/HCl pH 7.5, 150 mM NaCl, 1% NP40, 0.5% sodium deoxycholate, 0.1% SDS, 300 ug/ml DNAse, 0.1% TRITON X-100, 1 mM PMSF, 1 mM leupeptin, 1 mM pepstatin). The lysate was centrifuged (10,000×g for 10 min. at 4° C.) to remove debris and the soluble fraction was subjected to SDS PAGE. analysis (12% gel). Protein separated on the gel were transferred onto nitrocellulose membrane by electrophoretic means for 2 hours at 60 volts. The membrane was pretreated for one hour in PBS/0.1% Tween 20 with 5% non-fat dry milk. After washing 3 times in PBS/Tween buffer, the membrane was incubated with a 1:2000 dilution of a monospecific antiserum to PGHS-2 or a 1:1000 dilution of an antiserum to PGHs-1 in PBS/Tween with 1% BSA for one hour with continuous shaking. The membrane was washed 3× in PBS/Tween and then incubated with a 1:3000 dilution of horseradish peroxidase conjugated donkey antiserum to rabbit Ig (Amershamn) in PBS/Tween with 1% BSA for one hour with continuous shaking. The membrane was then washed 3× in PBS/Tween and the ECL immunodetection system (Amersham) was used to detect the level of expression of prostaglandin endoperoxide synthases-2.
# CSBP2 = biological target: T1, CSBP2 (Homo sapiens, UniProt Q16539); test: CSBP kinase assay (32P transfer to EGFR-derived peptide T669); format: biochemical
# T1 construct: made in house
# T1 sequence (Q16539 whole entry): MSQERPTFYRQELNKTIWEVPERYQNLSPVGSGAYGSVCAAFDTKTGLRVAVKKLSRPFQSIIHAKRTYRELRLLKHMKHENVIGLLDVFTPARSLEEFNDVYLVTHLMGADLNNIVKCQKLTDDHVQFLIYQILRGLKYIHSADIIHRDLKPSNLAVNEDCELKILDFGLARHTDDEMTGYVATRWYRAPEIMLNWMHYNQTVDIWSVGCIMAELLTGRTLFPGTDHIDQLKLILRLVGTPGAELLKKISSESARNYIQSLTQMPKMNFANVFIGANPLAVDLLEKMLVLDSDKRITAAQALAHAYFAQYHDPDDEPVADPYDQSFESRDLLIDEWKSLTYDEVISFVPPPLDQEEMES
# Description: Compounds (5 ul from [6X] stock^(2)) are pre-incubated with the enzyme and peptide for 20 min on ice prior to starting the reactions with 32P/MgATP. Reactions are incubated at 30° C. for 10 min and stopped by adding 10 ul of 0.3 M phosphoric acid. 32P-labeled peptide is separated on phosphocellulose (Wattman, p81) filters by spotting 30 ul reaction mixture. Filters are washed 3 times with […] phosphoric acid followed by 2 washes with H2 O, and counted for 32P.
# ^(2) Compounds are usually dissolved in DMSO and are diluted in 25 mM Hepes buffer to get final concentration of DMSO of 0.17%.
# IL-1 = test: Interleukin-1 (IL-1) production by LPS-stimulated human peripheral blood monocytes; format: cell-based; conditions: LPS 50 ng/ml
# Description: Human peripheral blood monocytes are isolated and purified from either fresh blood preparations from volunteer donors, or from blood bank buffy coats, according to the procedure of Colotta et al, J Immunol, 132, 936 (1984). These monocytes (1×10^6) are plated in 24-well plates at a concentration of 1-2 million/ml per well. The cells are allowed to adhere for 2 hours, after which time non-adherent cells are removed by gentle washing. Test compounds are then added to the cells for 1 h before the addition of lipopolysaccharide (50 ng/ml), and the cultures are incubated at 37° C. for an additional 24 h. At the end of this period, culture supernatants are removed and clarified of cells and all debris. Culture supernatants are then immediately assayed for IL-1 biological activity, either by the method of Simon et al., J. Immunol. Methods, 84, 85, (1985) (based on ability of IL-1 to stimulate a Interleukin 2 producing cell line (EL-4) to secrete IL-2, in concert with A23187 ionophore) or the method of Lee et al., J. Immuno Therapy, 6 (1), 1-12 (1990) (ELISA assay).
# [1] = biological target: T2, cytokine specific binding protein (CSBP) (Homo sapiens, UniProt Q16539); test: Cytokine Specific Binding Protein Assay (radiocompetitive binding, cytosolic fraction of THP.1 cells); conditions: THP.1 cytosolic fraction, radiolabeled compound
# T2 construct: soluble cystosolic fraction from THP.1 cells; endogenous in cells; host or cells: THP.1 cells, soluble cytosolic fraction
# T2 sequence (Q16539 whole entry): as above
# [2] = active, rank order potency similar to that for inhibiting cytokine production
smiles,measurement,setting,value
"C[S+]([O-])c1ccc(-c2nc3n(c2-c2ccncc2)CCC3)cc1 (stereo not drawn) [2-(4-Methylsulfinylphenyl)-3-(4-pyridyl)-6,7-dihydro-(5H)-pyrrolo[1,2-a]imidazole]",inhibition of LPS induced PGHS-2 protein expression,"human PGHS-2; inactive, up to 10 μM",inactive
"CCOC(=O)N1CCC(n2cnc(-c3ccc(SC)cc3)c2-c2ccnc(SC)n2)CC1 [Example 9, 1-(1-Ethylcarboxylpiperidin-4-yl)-3-(4-thiomethylphenyl)-5-[2-(thiomethyl)pyrimidin-4-yl]-imidazole]",IC50,CSBP2,> 50 µM
"Fc1ccc(-c2nc3n(c2-c2ccncc2)CCS3)cc1 [6-(4-Fluorophenyl)-2,3-dihydro-5-(4-pyridinyl)imidazo[2,1-b]thiazole]",inhibition of LPS induced PGHS-2 protein expression,human PGHS-2; [2],active
CCOC(=O)N1CCC(n2cnc(-c3ccc([S+](C)[O-])cc3)c2-c2ccnc([S+](C)[O-])n2)CC1 (stereo not drawn) [Example 10],IC50,CSBP2,> 50 µM
"COc1nccc(-c2c(-c3ccc(F)cc3)ncn2C2CCNCC2)n1 [Example 1, 5-(2-Methoxy-4-pyrimidinyl)-4-(4-fluorophenyl)-1-(4-piperidinyl)imidazole]",inhibition of IL-1 production,IL-1,positive inhibition
C[S+]([O-])c1ccc(-c2nc(-c3ccc(F)cc3)c(-c3ccncc3)[nH]2)cc1 (stereo not drawn) [4-(4-Fluorophenyl)-2-(4-methylsulfinylphenyl)-5-(4-pyridyl)imidazole],inhibition of LPS induced PGHS-2 protein expression,human PGHS-2; [2],active
CC(Cc1ccc(O)c(O)c1)C(C)Cc1ccc(O)c(O)c1 (stereo not drawn) [NDGA],inhibition of LPS induced PGHS-2 protein expression,"human PGHS-2; inactive, up to 10 μM",inactive
C[C@@H]1C[C@H]2[C@@H]3CCC4=CC(=O)C=C[C@]4(C)[C@@]3(F)[C@@H](O)C[C@]2(C)[C@@]1(O)C(=O)CO [Dexamethasone],inhibition of LPS induced PGHS-2 protein expression,human PGHS-2; [2],active
O=C1CCN(c2ccccc2)N1 [phenidone],inhibition of LPS induced PGHS-2 protein expression,"human PGHS-2; inactive, up to 10 μM",inactive
"CC(C)Oc1cc(-c2c(-c3ccc(F)cc3)ncn2C2CCNCC2)ccn1 [Example 5, 5-(2-iso-Propoxy4-pyridinyl)-4-(4-fluorophenyl)-1-(4-piperidinyl)imidazole]",IC50,CSBP2,> 50 µM
"CSc1nccc(-c2c(-c3ccc(F)cc3)ncn2C2CCNCC2)n1 [Example 6, 5-(2-Methylthio-4-pyrimidinyl)4-(4-fluorophenyl)-1-(4-piperidinyl)imidazole]",IC50,[1],< 50 µM
COc1ccc(C2CNC(=O)C2)cc1OC1CCCC1 (stereo not drawn) [rolipramr],inhibition of LPS induced PGHS-2 protein expression,"human PGHS-2; inactive, up to 10 μM",inactive
